Values after ≈ are worked out from the molar mass of the structure shown.
Key:
[1] = assay type: in vitro ADME; conditions: RED assay
[2] = in vitro; conditions: human, microsomes
[3] = biological target: BRD4(BD2) (Homo sapiens, UniProt O60885); assay: TR-FRET binding assay, BRD4
[4] = biological target: BRD2 (BD1) (Homo sapiens, UniProt P25440); assay: TR-FRET binding assay, BRD2
[5] = physchem; conditions: phosphate buffer, pH 7.4
[6] = incubation 0.5h, UV; table
[7] = system: NALM16 leukaemia cells; assay: Cancer cell viability, CellTiter-Glo, NALM16; assay type: cell-based; conditions: NALM16, 72 h, read-out: NALM16, IC50
[8] = in vitro; conditions: human, plasma
[9] = in vitro; conditions: human; for Papp B→A: Caco-2; for Papp: Caco-2, Caco2 A/B (Papp), A to B
[10] = system: D283 medulloblastoma cells; assay: Cancer cell viability, CellTiter-Glo, D283; assay type: cell-based; conditions: D283, 72 h, read-out: D283, IC50
[11] = system: MOLM-13 acute leukaemia cells; assay: Cancer cell viability, CellTiter-Glo, MOLM-13; assay type: cell-based; conditions: Homo sapiens, MOLM-13, 72 h, read-out: MOLM-13, IC50
[12] = biological target: BRD2(BD2) (Homo sapiens, UniProt P25440); assay: TR-FRET binding assay, BRD2
Sequence of BRD2(BD2) (P25440 344-453 limits assumed): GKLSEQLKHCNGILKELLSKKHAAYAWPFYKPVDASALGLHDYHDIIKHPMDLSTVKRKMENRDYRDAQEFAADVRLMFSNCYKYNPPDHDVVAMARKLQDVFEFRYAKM

[13] = In vivo pharmacokinetic study in female CD1 mice; conditions: P.O. 3mg/kg and 10mg/kg
[14] = system: MYC; assay: MYC protein abundance by immunoblotting in MV4-11; assay type: cell-based; conditions: MV4–11, 6 hours incubation, 100 nM
[15] = system: HDMB03 medulloblastoma cells; assay: cells; assay type: cell-based; conditions: Homo sapiens, HD-MB03, 72 h, read-out: HDMB03, IC50
[16] = biological target: BRD4 (BD1) (Homo sapiens, UniProt O60885); assay: TR-FRET binding assay, BRD4
[17] = incubation up to 48h
[18] = system: BET isoforms; assay: BROMOscan profiling; conditions: all BET isoforms (Figure S2)

Sequence of BRD2 (BD1) (P25440 74-180 limits assumed): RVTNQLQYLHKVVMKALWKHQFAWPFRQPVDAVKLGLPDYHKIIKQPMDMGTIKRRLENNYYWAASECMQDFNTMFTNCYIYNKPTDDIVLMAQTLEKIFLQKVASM

Compound	PB (human plasma binding) [1] [%]	half-life [2] [h]	solubility at 18 h [5] [µM]	PAMPA [6]	IC50 [7] [nM]	other results
Cc1sc2c(c1C)C(c1ccc(Cl)cc1)=N[C@@H](CC(=O)Nc1ccc(O)cc1)c1nnc(C)n1-2 [1c, birabresib, reference compound]	97.3					
Cc1sc2c(c1C)C(c1ccc(Cl)cc1)=N[C@@H](CC(=O)NCc1c[nH]nn1)c1nnc(C)n1-2 [1d]		0.6	57.4 (≈ 27.6 µg/mL)			IC50 [3]: 1.3 nM; IC50 [4]: 8.6 nM
Cc1sc2c(c1C)C(c1ccc(Cl)cc1)=N[C@@H](CC(=O)NCc1cn(C)nn1)c1nnc(C)n1-2 [1e]		0.5	80.8 (≈ 40 µg/mL)	14.0 10^−6cm/s		
Cc1sc2c(c1C)C(c1ccc(Cl)cc1)=N[C@@H](CC(=O)NCc1cn(C)cn1)c1nnc(C)n1-2 [1f]		0.5	65.7 (≈ 32.5 µg/mL)	0.0 10^−6cm/s		
Cc1sc2c(c1C)C(c1ccc(Cl)cc1)=N[C@@H](CC(=O)NCc1ccccc1)c1nnc(C)n1-2 [1g]		0.1	34.1 (≈ 16.7 µg/mL)			
Cc1sc2c(c1C)C(c1ccc(Cl)cc1)=N[C@@H](CC(=O)NCc1ccon1)c1nnc(C)n1-2 [1h]	93.5					
Cc1sc2c(c1C)C(c1ccc(Cl)cc1)=N[C@@H](CC(=O)NCc1ncco1)c1nnc(C)n1-2 [1i]					0.8	
COC(=O)C(Cc1c[nH]cn1)NC(=O)C[C@@H]1N=C(c2ccc(Cl)cc2)c2c(sc(C)c2C)-n2c(C)nnc21 (some centres unmarked) [1j]	92.7	4.7	68.4 (≈ 37.8 µg/mL)	0.0 10^−6cm/s		IC50 [3]: 6.5 nM; half-life [8]: 24.7 h
Cc1sc2c(c1C)C(c1ccc(Cl)cc1)=N[C@@H](CC(=O)NCc1ccccn1)c1nnc(C)n1-2 [1k]		0.1	72.5 (≈ 35.6 µg/mL)		14.8	Papp B→A [9]: 56.8 ×10⁻⁶ cm/s; Papp [9]: 9.84 ×10⁻⁶ cm/s; half-life [8]: > 100 h
Cc1sc2c(c1C)C(c1ccc(Cl)cc1)=N[C@@H](CC(=O)NCC(=O)O)c1nnc(C)n1-2 [1l]		11.3	66.4 (≈ 30.4 µg/mL)	0.5 10^−6cm/s		IC50 [10]: > 8850 nM
Cc1sc2c(c1C)C(c1ccc(Cl)cc1)=N[C@@H](CC(=O)NCCO)c1nnc(C)n1-2 [1n]		3.2	76.1 (≈ 33.8 µg/mL)			Papp B→A [9]: 8.33 ×10⁻⁶ cm/s; Papp [9]: 0.7 ×10⁻⁶ cm/s; IC50 [11]: 8.8 nM; half-life [8]: > 100 h
Cc1sc2c(c1C)C(c1ccc(Cl)cc1)=N[C@@H](CC(=O)Nc1nccs1)c1nnc(C)n1-2 [1o]	98.2	1.1	12.4 (≈ 5.99 µg/mL)		6.4	IC50 [12]: 2.6 nM; Papp B→A [9]: 4.11 ×10⁻⁶ cm/s; Papp [9]: 1.91 ×10⁻⁶ cm/s; IC50 [4]: 10.9 nM
Cc1sc2c(c1C)C(c1ccc(Cl)cc1)=N[C@@H](CC(=O)Nc1nncs1)c1nnc(C)n1-2 [1q]					3.6	oral bioavailability in words [13]: high bioavailability; IC50 [4]: 1.6 nM; MYC protein abundance [14]: around 50%; IC50 [15]: 6.6 nM; IC50 [16]: 6.5 nM; human plasma stability [17]: 100%; affinity in BROMOscan profiling [18]: high affinity for all BET isoforms

Reference: PMC10165889 (European journal of medicinal chemistry, 2023)
